Laboratory results: US20090269354A1, “QUINAZOLINE DERIVATIVES AND METHODS OF TREATMENT” (Concert Pharmaceuticals, Inc., priority 2008, published 2009)

Legend:
[1] = Compound stability in human liver microsomes (Example 15); assay type: in vitro ADME; settings: 1 μM test compound; for % Difference (t1/2 compared to erlotinib): [(deuterated species) − (nondeuterated species)](100)/(nondeuterated species), reference erlotinib, 0.5 mg/mL HLM; for half-life at 1 μM: pH 7.4, pooled human liver microsomes 0.5 mg/mL, 2 mM NADPH, 37° C., 0-30 min
Description: Evaluation of Compound Stability in Human Liver Microsomes. […] The metabolic stability of compounds of the invention was tested using pooled liver microsomal incubations. Samples of the test compounds, exposed to pooled human liver microsomes, were analyzed using HPLC-MS (or MS/MS) detection. For determining metabolic stability, multiple reaction monitoring (MRM) was used to measure the disappearance of the test compounds. Experimental Procedures. Human liver microsomes (“HLM”; 20 mg/mL) were obtained from Xenotech, LLC (Lenexa, Kans.). β-nicotinamide adenine dinucleotide phosphate, reduced form (NADPH), magnesium chloride (MgCl2), and dimethyl sulfoxide (DMSO) were purchased from Sigma-Aldrich. Stock solutions of test compounds (7.5 mM) were prepared in DMSO. The 7.5 mM stock solutions were diluted to 50 μM in acetonitrile (ACN). The 20 mg/mL human liver microsomes were diluted to 0.625 mg/mL in 0.1 M potassium phosphate buffer, pH 7.4, containing 3 mM MgCl2. The diluted microsomes (375 μL) were added to wells of a 96-well deep-well polypropylene plate in triplicate. A 10 μL aliquot of the 50 μM test compound solution was added to the microsomes and the mixture was pre-warmed for 10 minutes. Reactions were initiated by addition of 125 μL of pre-warmed NADPH solution (8 mM NADPH in 0.1M potassium phosphate buffer, pH 7.4, containing 3 mM MgCl2). The final reaction volume was 0.5 mL and contained 0.5 mg/mL human liver microsomes, 1 μM test compound, and 2 mM NADPH in 0.1 M potassium phosphate buffer, pH 7.4, and 3 mM MgCl2. The reaction mixtures were incubated at 37° C., and 50 μL aliquots were removed at 0, 5, 10, 20, and 30 minutes and added to shallow-well 96-well plates which contained 50 μL of ice-cold ACN with internal standard to stop the reactions. The plates were stored at 4° C. for 20 minutes after which 100 μL of water was added to the wells of the plate before centrifugation to pellet precipitated proteins. Supernatants were transferred to another 96-well plate and analyzed for amounts of parent remaining by LC-MS/MS using an Applied Bio-systems API 4000 mass spectrometer. 7-ethoxycoumarin was used as a positive control. The in vitro t1/2 s for test compounds were calculated from the slopes of the linear regression of % parent remaining (ln) vs incubation time relationship. […] Data analysis was performed using Microsoft Excel Software.

[2] = Compound stability in human liver microsomes (Example 16, design as Example 15); assay type: in vitro ADME; settings: 1 μM test compound; for half-life at 1 μM: pooled human liver microsomes, pH 7.4, human liver microsomes 0.5 mg/mL; for % Difference with respect to non-deuterated analog: t1/2 vs 105-H or 106-H; for % Difference with respect to non-deuterated analog / % Difference with respect to non-deuterated Erlotinib: 0.5 mg/mL HLM; for % Difference with respect to non-deuterated Erlotinib: t1/2 vs erlotinib
Description: The metabolic stability of compounds of the invention was tested using pooled liver microsomal incubations. Samples of the test compounds, exposed to pooled human liver microsomes, were analyzed using HPLC-MS (or MS/MS) detection. For determining metabolic stability, multiple reaction monitoring (MRM) was used to measure the disappearance of the test compounds.
Experimental Procedures. Human liver microsomes (“HLM”; 20 mg/mL) were obtained from Xenotech, LLC (Lenexa, Kans.). β-nicotinamide adenine dinucleotide phosphate, reduced form (NADPH), magnesium chloride (MgCl2), and dimethyl sulfoxide (DMSO) were purchased from Sigma-Aldrich.
Stock solutions of test compounds (7.5 mM) were prepared in DMSO. The 7.5 mM stock solutions were diluted to 50 μM in acetonitrile (ACN). The 20 mg/mL human liver microsomes were diluted to 0.625 mg/mL in 0.1 M potassium phosphate buffer, pH 7.4, containing 3 mM MgCl2. The diluted microsomes (375 μL) were added to wells of a 96-well deep-well polypropylene plate in triplicate. A 10 μL aliquot of the 50 μM test compound solution was added to the microsomes and the mixture was pre-warmed for 10 minutes. Reactions were initiated by addition of 125 μL of pre-warmed NADPH solution (8 mM NADPH in 0.1M potassium phosphate buffer, pH 7.4, containing 3 mM MgCl2). The final reaction volume was 0.5 mL and contained 0.5 mg/mL human liver microsomes, 1 μM test compound, and 2 mM NADPH in 0.1 M potassium phosphate buffer, pH 7.4, and 3 mM MgCl2. The reaction mixtures were incubated at 37° C., and 50 μL aliquots were removed at 0, 5, 10, 20, and 30 minutes and added to shallow-well 96-well plates which contained 50 μL of ice-cold ACN with internal standard to stop the reactions. The plates were stored at 4° C. for 20 minutes after which 100 μL of water was added to the wells of the plate before centrifugation to pellet precipitated proteins. Supernatants were transferred to another 96-well plate and analyzed for amounts of parent remaining by LC-MS/MS using an Applied Bio-systems API 4000 mass spectrometer. 7-ethoxycoumarin was used as a positive control.
The in vitro t1/2 s for test compounds were calculated from the slopes of the linear regression of % parent remaining (ln) vs incubation time relationship.
in vitro t1/2=0.693/k, where k=−[slope of linear regression of % parent remaining(ln) vs incubation time]. Data analysis was performed using Microsoft Excel Software.
Evaluation of Compound Stability in Human Liver Microsomes.

Row | % Difference (t1/2 compared to erlotinib) [1] [%] | half-life at 1 μM [1] [h] | half-life at 1 μM [2] [h] | % Difference with respect to non-deuterated analog [2] [%] | % Difference with respect to non-deuterated Erlotinib [2] [%] | SMILES
1 |  | 1.14 |  |  |  | [2H]C([2H])([2H])OC([2H])([2H])C([2H])([2H])Oc1cc2ncnc(Nc3cccc(C#C)c3)c2cc1OC([2H])([2H])C([2H])([2H])OC([2H])([2H])[2H] [Compound 120, N-(3-Ethynylphenyl)-6,7-bis(2-(methoxy-d3)ethoxy-d4)quinazolin-4-amine]
2 | −12 | 0.847 |  |  |  | [2H]C([2H])([2H])OC([2H])([2H])C([2H])([2H])Oc1cc2ncnc(Nc3ccc(F)c(C#C)c3)c2cc1OC([2H])([2H])C([2H])([2H])OC([2H])([2H])[2H] [Compound 121, N-(3-Ethynyl-4-fluorophenyl)-6,7-bis(2-(methoxy-d3)ethoxy-d4)quinazolin-4-amine]

Further lines, the molecule ahead of its results:

Row | SMILES | % Difference (t1/2 compared to erlotinib) [1] [%] | half-life at 1 μM [1] [h] | half-life at 1 μM [2] [h] | % Difference with respect to non-deuterated analog [2] [%] | % Difference with respect to non-deuterated Erlotinib [2] [%]
3 | [2H]C([2H])([2H])OC([2H])([2H])COc1cc2ncnc(Nc3ccc(F)c(C#C)c3)c2cc1OCC([2H])([2H])OC([2H])([2H])[2H] [Compound 135, N-(3-Ethynyl-4-fluorophenyl)-6,7-bis(2-(methoxy-d3)-2,2-d2-ethoxy)quinazolin-4-amine] | −19 | 0.785 |  |  | 
4 | [2H]C([2H])([2H])OC([2H])([2H])COc1cc2ncnc(Nc3cccc(Br)c3)c2cc1OCC([2H])([2H])OC([2H])([2H])[2H] [Compound 105, N-(3-Bromophenyl)-6,7-bis(2-(methoxy-d3)-2,2-d2-ethoxy)quinazolin-4-amine] |  |  | 1.18 | 35 | 19
5 | [2H]C([2H])([2H])OC([2H])([2H])COc1cc2ncnc(Nc3cccc(Cl)c3)c2cc1OCC([2H])([2H])OC([2H])([2H])[2H] [Compound 106, N-(3-Chlorophenyl)-6,7-bis(2-(methoxy-d3)-2,2-d2-ethoxy)quinazolin-4-amine] |  |  | 1.54 | 22 | 55
6 | [2H]C([2H])([2H])OC([2H])([2H])COc1cc2ncnc(Nc3ccc(O)c(C#C)c3)c2cc1OCC([2H])([2H])OC([2H])([2H])[2H] [Compound 138, 4-(6,7-Bis(2-(methoxy-d3)-2,2-d2-ethoxy)quinazolin-4-ylamino)-2-ethynylphenol] |  | 1.48 |  |  | 
7 | C#Cc1cccc(Nc2ncnc3cc(OCCOC)c(OCCOC)cc23)c1 [Erlotinib, [6,7-Bis-(2-methoxy-ethoxy)-quinazolin-4-yl]-(3-ethynyl-phenyl)-amine, reference compound] |  | 0.963 | 0.997 |  | 
